Measurements from patent US20240116951A1, “HETEROCYCLIC COMPOUNDS AND USES THEREOF” (Kumquat Biosciences Inc., priority 2022, published 2024).
pIC50: −log10 of the molar value.

Columns and labels:
Assay type in all cases: binding
KRAS G12S = molecular target: T1, KRAS G12S (Homo sapiens, UniProt P01116, G12S); assay: HTRF assay of K-Ras G12S interaction with SOS1 (PPI-HTRF); conditions: 5 nM KRAS G12S, read-out: PPI-HTRF-5 nM KRAS G12S
T1 construct: made in house; host or cells: E. coli, e.g. BL21 (DE3)
T1 sequence (P01116 1-188 isoform P01116-2 G12S): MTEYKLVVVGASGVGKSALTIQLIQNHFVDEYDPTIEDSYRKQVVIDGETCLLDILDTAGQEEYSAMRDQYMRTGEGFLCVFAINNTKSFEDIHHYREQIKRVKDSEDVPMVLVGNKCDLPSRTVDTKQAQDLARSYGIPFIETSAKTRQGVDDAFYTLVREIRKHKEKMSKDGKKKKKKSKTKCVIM
In short: (§1)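 Equilibrium binding between GST-K-Ras and His-tagged human SOS1 is measured by FRET from a europium anti-GST donor to an XL665 anti-His acceptor. Compounds are run in duplicate at 10, 2.5, 0.63, 0.16, 0.04 and 0.01 μM, and IC50 is calculated from the 665/620 nm ratio.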

KRAS G12D = molecular target: T2, KRAS G12D (Homo sapiens, UniProt P01116, G12D); assay: HTRF assay of K-Ras G12D interaction with SOS1 (PPI-HTRF); conditions: HTRF, 5 nM KRAS G12D; read-out: PPI-HTRF-5 nM KRAS G12D
T2 construct: made in house; host or cells: E. coli, e.g. BL21 (DE3)
T2 sequence (P01116 1-188 isoform P01116-2 G12D): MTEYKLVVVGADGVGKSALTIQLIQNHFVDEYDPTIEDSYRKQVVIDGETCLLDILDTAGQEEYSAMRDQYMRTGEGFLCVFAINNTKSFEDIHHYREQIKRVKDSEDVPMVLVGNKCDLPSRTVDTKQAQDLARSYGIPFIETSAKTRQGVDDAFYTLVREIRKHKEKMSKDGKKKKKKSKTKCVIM
In short: as §1

KRAS WT = molecular target: T3, KRAS WT (Homo sapiens, UniProt P01116); assay: HTRF assay of wildtype K-Ras interaction with SOS1 (PPI-HTRF); conditions: HTRF, 5 nM KRAS WT; read-out: PPI-HTRF-5 nM KRAS WT
T3 construct: made in house; host or cells: E. coli, e.g. BL21 (DE3)
T3 sequence (P01116 1-188 isoform P01116-2): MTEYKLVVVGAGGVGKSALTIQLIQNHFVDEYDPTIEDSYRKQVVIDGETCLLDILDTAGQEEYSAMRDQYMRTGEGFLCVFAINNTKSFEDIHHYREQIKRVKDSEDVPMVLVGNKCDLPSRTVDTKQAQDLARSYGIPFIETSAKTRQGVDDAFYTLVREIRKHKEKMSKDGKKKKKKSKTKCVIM
In short: as §1

Measured: pIC50

N#Cc1c(N)sc2c(F)ccc(-c3c(Cl)cc4c(N5CCC6(CCN6)C5)nc(OC[C@@]56CCCN5C[C@H](F)C6)nc4c3F)c12 (stereo partly drawn) [Compound 212, 2-amino-4-(6-chloro-8-fluoro-2-(((2R,7aS)-2-fluorotetrahydro-1H-pyrrolizin-7a(5H)-yl)methoxy)-4-(1,6-diazaspiro[3.4]octan-6-yl)quinazolin-7-yl)-7-fluorobenzo[b]thiophene-3-carbonitrile]
> 5.30: all assays above

C[C@H](Oc1nc(N2CCC3(CCN3C(=O)C3CC3(F)F)C2)c2cc(Cl)c(-c3ccc(F)c4sc(N)c(C#N)c34)c(F)c2n1)[C@@H]1CCCN1C (stereo partly drawn) [Compound 280, 2-amino-4-(6-chloro-4-(1-(2,2-difluorocyclopropane-1-carbonyl)-1,6-diazaspiro[3.4]octan-6-yl)-8-fluoro-2-((S)-1-((S)-1-methylpyrrolidin-2-yl)ethoxy)quinazolin-7-yl)-7-fluorobenzo[b]thiophene-3-carbonitrile]
> 5.30: all assays above

Cc1nc(Cl)n(C(=O)N2CCC23CCN(c2nc(OC[C@@]45CCCN4C[C@H](F)C5)nc4c(F)c(-c5ccc(F)c6sc(N)c(C#N)c56)c(Cl)cc24)C3)n1 (stereo partly drawn) [Compound 311, 2-amino-4-(6-chloro-4-(1-(5-chloro-3-methyl-1H-1,2,4-triazole-1-carbonyl)-1,6-diazaspiro[3.4]octan-6-yl)-8-fluoro-2-(((2R,7aS)-2-fluorotetrahydro-1H-pyrrolizin-7a(5H)-yl)methoxy)quinazolin-7-yl)-7-fluorobenzo[b]thiophene-3-carbonitrile]
> 5.30: all assays above

C[C@H](Oc1nc(N2CC[C@@]3(CCN3C(=O)C3CC3(F)F)C2)c2cc(Cl)c(-c3ccc(F)c4sc(N)c(C#N)c34)c(F)c2n1)[C@@H]1CCCN1C (stereo partly drawn) [Compound 346, (4S)-2-amino-4-(6-chloro-4-((4R)-1-(2,2-difluorocyclopropane-1-carbonyl)-1,6-diazaspiro[3.4]octan-6-yl)-8-fluoro-2-((S)-1-((S)-1-methylpyrrolidin-2-yl)ethoxy)quinazolin-7-yl)-7-fluorobenzo[b]thiophene-3-carbonitrile]
> 5.30: all assays above

N#CCC1CN(c2nc(OC[C@@]34CCCN3C[C@H](F)C4)nc3c(F)c(-c4ccc(F)c5sc(N)c(C#N)c45)c(Cl)cc23)CC12CCN2C(=O)n1cnc(Cl)n1 (stereo partly drawn) [Compound 328, 2-amino-4-(6-chloro-4-(1-(3-chloro-1H-1,2,4-triazole-1-carbonyl)-8-(cyanomethyl)-1,6-diazaspiro[3.4]octan-6-yl)-8-fluoro-2-(((2R,7aS)-2-fluorotetrahydro-1H-pyrrolizin-7a(5H)-yl)methoxy)quinazolin-7-yl)-7-fluorobenzo[b]thiophene-3-carbonitrile]
> 5.30: all assays above

N#Cc1c(N)sc2c(F)ccc(-c3c(Cl)cc4c(N5CCC6(COCCN6C#N)C5)nc(OC[C@@]56CCCN5C[C@H](F)C6)nc4c3F)c12 (stereo partly drawn) [Compound 302, 2-(7-(2-amino-3-cyano-7-fluorobenzo[b]thiophen-4-yl)-6-chloro-8-fluoro-2-(((2R,7aS)-2-fluorotetrahydro-1H-pyrrolizin-7a(5H)-yl)methoxy)quinazolin-4-yl)-9-oxa-2,6-diazaspiro[4.5]decane-6-carbonitrile]
> 5.30: all assays above

N#Cc1c(N)sc2c(F)ccc(-c3c(Cl)cc4c(N5CC[C@@]6(CCN6C(=O)n6cnc(CCl)n6)C5)nc(OC[C@@]56CCCN5C[C@H](F)C6)nc4c3F)c12 [Compound 322, 2-amino-4-(6-chloro-4-((R)-1-(3-(chloromethyl)-1H-1,2,4-triazole-1-carbonyl)-1,6-diazaspiro[3.4]octan-6-yl)-8-fluoro-2-(((2R,7aS)-2-fluorotetrahydro-1H-pyrrolizin-7a(5H)-yl)methoxy)quinazolin-7-yl)-7-fluorobenzo[b]thiophene-3-carbonitrile]
> 5.30: all assays above

N#Cc1c(N)sc2c(F)ccc(-c3c(Cl)cc4c(N5CCC6(CCCN6C(=O)n6cncn6)C5)nc(OC[C@@]56CCCN5C[C@H](F)C6)nc4c3F)c12 (stereo partly drawn) [Compound 261, 4-(4-(1-(1H-1,2,4-triazole-1-carbonyl)-1,7-diazaspiro[4.4]nonan-7-yl)-6-chloro-8-fluoro-2-(((2R,7aS)-2-fluorotetrahydro-1H-pyrrolizin-7a(5H)-yl)methoxy)quinazolin-7-yl)-2-amino-7-fluorobenzo[b]thiophene-3-carbonitrile]
> 5.30: all assays above

C[C@H](Oc1nc(N2CCCC3(CCN3C(=O)[C@@H]3C[C@H]3C#N)C2)c2cc(Cl)c(-c3ccc(F)c4sc(N)c(C#N)c34)c(F)c2n1)[C@@H]1CCCN1C (stereo partly drawn) [Compound 235, 2-amino-4-(6-chloro-4-(1-((1R,2R)-2-cyanocyclopropane-1-carbonyl)-1,6-diazaspiro[3.5]nonan-6-yl)-8-fluoro-2-((S)-1-((S)-1-methylpyrrolidin-2-yl)ethoxy)quinazolin-7-yl)-7-fluorobenzo[b]thiophene-3-carbonitrile]
> 5.30: all assays above

N#Cc1c(N)sc2c(F)ccc(-c3c(Cl)cc4c(N5CC[C@@]6(CCN6C(=O)n6cnc(Cl)n6)C5)nc(OC[C@@]56CCCN5C[C@H](F)C6)nc4c3F)c12 (atropisomer, axis not shown; (aS)) [Compound 225, 2-amino-4-((R)-6-chloro-4-((R)-1-(3-chloro-1H-1,2,4-triazole-1-carbonyl)-1,6-diazaspiro[3.4]octan-6-yl)-8-fluoro-2-(((2R,7aS)-2-fluorotetrahydro-1H-pyrrolizin-7a(5H)-yl)methoxy)quinazolin-7-yl)-7-fluorobenzo[b]thiophene-3-carbonitrile]
> 5.30: all assays above

N#Cc1c(N)sc2c(F)ccc(-c3c(Cl)cc4c(N5CCC6(CCCCN6C(=O)C6CC6(F)F)C5)nc(OC[C@@]56CCCN5C[C@H](F)C6)nc4c3F)c12 (stereo partly drawn) [Compound 240, 2-amino-4-(6-chloro-4-(6-(2,2-difluorocyclopropane-1-carbonyl)-2,6-diazaspiro[4.5]decan-2-yl)-8-fluoro-2-(((2R,7aS)-2-fluorotetrahydro-1H-pyrrolizin-7a(5H)-yl)methoxy)quinazolin-7-yl)-7-fluorobenzo[b]thiophene-3-carbonitrile]
> 5.30: all assays above

C[C@H](Oc1nc(N2CCC3(CCN3)C2)c2cc(Cl)c(-c3ccc(F)c4sc(N)c(C#N)c34)c(F)c2n1)[C@@H]1CCCN1C (stereo partly drawn) [Compound 213, 2-amino-4-(6-chloro-8-fluoro-2-((S)-1-((S)-1-methylpyrrolidin-2-yl)ethoxy)-4-(1,6-diazaspiro[3.4]octan-6-yl)quinazolin-7-yl)-7-fluorobenzo[b]thiophene-3-carbonitrile]
> 5.30: all assays above

Cc1ncn(C(=O)N2CC[C@]23CCN(c2nc(OC[C@@]45CCCN4C[C@H](F)C5)nc4c(F)c(-c5ccc(F)c6sc(N)c(C#N)c56)c(Cl)cc24)C3)n1 [Compound 222, 2-amino-4-(6-chloro-8-fluoro-2-(((2R,7aS)-2-fluorotetrahydro-1H-pyrrolizin-7a(5H)-yl)methoxy)-4-((S)-1-(3-methyl-1H-1,2,4-triazole-1-carbonyl)-1,6-diazaspiro[3.4]octan-6-yl)quinazolin-7-yl)-7-fluorobenzo[b]thiophene-3-carbonitrile]
> 5.30: all assays above

C[C@H]1CN(C(=O)n2cnc(F)n2)[C@]12CCN(c1nc(OC[C@@]34CCCN3C[C@H](F)C4)nc3c(F)c(-c4ccc(F)c5sc(N)c(C#N)c45)c(Cl)cc13)C2 [Compound 255, 2-amino-4-(6-chloro-8-fluoro-4-((3S,4R)-1-(3-fluoro-1H-1,2,4-triazole-1-carbonyl)-3-methyl-1,6-diazaspiro[3.4]octan-6-yl)-2-(((2R,7aS)-2-fluorotetrahydro-1H-pyrrolizin-7a(5H)-yl)methoxy)quinazolin-7-yl)-7-fluorobenzo[b]thiophene-3-carbonitrile]
> 5.30: all assays above

C[C@H]1N(c2nc(OC[C@@]34CCCN3C[C@H](F)C4)nc3c(F)c(-c4ccc(F)c5sc(N)c(C#N)c45)c(Cl)cc23)CC[C@@]12CCN2C(=O)n1cnc(Cl)n1 [Compound 263, 2-amino-4-(6-chloro-4-((4R,5R)-1-(3-chloro-1H-1,2,4-triazole-1-carbonyl)-5-methyl-1,6-diazaspiro[3.4]octan-6-yl)-8-fluoro-2-(((2R,7aS)-2-fluorotetrahydro-1H-pyrrolizin-7a(5H)-yl)methoxy)quinazolin-7-yl)-7-fluorobenzo[b]thiophene-3-carbonitrile]
> 5.30: all assays above
